Among the data in US9273028B2, “Heterocyclic tyrosine kinase inhibitors” (Biogen MA Inc., priority 2010, dated 2016) are IC50 values, retold here.

What all share (assay type): biochemical
In one test the target is T1, Itk (Homo sapiens, UniProt Q08881).
T1 construct: purchased Carna Bioscience 08-181
T1 sequence (Q08881 1-620): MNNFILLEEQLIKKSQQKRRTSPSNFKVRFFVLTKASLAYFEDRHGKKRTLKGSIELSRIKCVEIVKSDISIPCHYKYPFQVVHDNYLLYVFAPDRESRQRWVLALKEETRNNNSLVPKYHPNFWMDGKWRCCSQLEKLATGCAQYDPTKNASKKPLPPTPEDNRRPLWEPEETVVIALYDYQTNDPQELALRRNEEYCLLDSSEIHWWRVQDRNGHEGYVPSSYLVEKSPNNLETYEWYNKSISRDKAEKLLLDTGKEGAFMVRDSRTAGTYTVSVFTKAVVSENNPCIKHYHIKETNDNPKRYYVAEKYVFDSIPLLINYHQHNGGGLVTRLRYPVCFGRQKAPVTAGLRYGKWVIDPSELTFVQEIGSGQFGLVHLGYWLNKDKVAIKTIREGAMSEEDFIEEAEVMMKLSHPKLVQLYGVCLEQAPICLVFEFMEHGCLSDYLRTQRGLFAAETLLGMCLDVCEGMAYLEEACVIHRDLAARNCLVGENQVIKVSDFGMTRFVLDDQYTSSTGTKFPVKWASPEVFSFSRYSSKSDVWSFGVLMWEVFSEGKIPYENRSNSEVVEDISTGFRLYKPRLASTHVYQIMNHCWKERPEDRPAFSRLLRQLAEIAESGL
As to the kind of experiment: Itk kinase selectivity assay (Example 142 procedure, Table 3 modifications). The settings on record: ATP 10 μM. The procedure: (§1) The purpose of the Tec in vitro assay is to determine compound potency against Tec through the measurement of IC50. Compound inhibition is measured after monitoring the amount of phosphorylation of a fluorescein-labeled polyGT peptide (Invitrogen PV3610) in the presence of active Tec enzyme (Carna Biosciences 08-182), ATP, and inhibitor. The Tec kinase reaction was done in a black 96 well plate (costar 3694). For a typical assay, a 29 μL aliquot of a ATP/peptide master mix (final concentration; ATP 25 μM, polyGT 100 nM) in kinase buffer (10 mM Tris-HCl pH 7.5, 10 mM MgCl2, 200 μM Na3PO4, 5 mM DTT, 0.01% Triton X-100, and 0.2 mg/ml casein) is added to each well. Next, 1 μL of a 3-fold, 50× compound titration in 100% DMSO solvent is added, followed by adding 20 uL of Tec enzyme mix in 1× kinase buffer (with a final concentration of 0.125 nM). The assay is incubated for 15 minutes before being stopped with 5 μl, of a 220 mM EDTA solution. Aliquots (5 μL) of the kinase reaction are transferred to a low volume white 384 well plate (Corning 3674), and 5 μL of a 2× detection buffer (Invitrogen PV3574, with 2 nM Tb-PY20 antibody, Invitrogen PV3552) is added. The plate is covered and incubated for 45 minutes at room temperature. Time resolved fluorescence (TRF) on Molecular Devices M5 (332 nm excitation; 488 nm emission; 518 nm fluorescein emission) is measured.
(§2) Using the procedure described in Example 142, with the modifications shown in Table 3, selectivity for Itk, Txk, and Lck was measured.

Another test has as its target T2, Tec (Homo sapiens, UniProt P42680).
T2 construct: purchased Carna Biosciences 08-182
T2 sequence (P42680 1-631): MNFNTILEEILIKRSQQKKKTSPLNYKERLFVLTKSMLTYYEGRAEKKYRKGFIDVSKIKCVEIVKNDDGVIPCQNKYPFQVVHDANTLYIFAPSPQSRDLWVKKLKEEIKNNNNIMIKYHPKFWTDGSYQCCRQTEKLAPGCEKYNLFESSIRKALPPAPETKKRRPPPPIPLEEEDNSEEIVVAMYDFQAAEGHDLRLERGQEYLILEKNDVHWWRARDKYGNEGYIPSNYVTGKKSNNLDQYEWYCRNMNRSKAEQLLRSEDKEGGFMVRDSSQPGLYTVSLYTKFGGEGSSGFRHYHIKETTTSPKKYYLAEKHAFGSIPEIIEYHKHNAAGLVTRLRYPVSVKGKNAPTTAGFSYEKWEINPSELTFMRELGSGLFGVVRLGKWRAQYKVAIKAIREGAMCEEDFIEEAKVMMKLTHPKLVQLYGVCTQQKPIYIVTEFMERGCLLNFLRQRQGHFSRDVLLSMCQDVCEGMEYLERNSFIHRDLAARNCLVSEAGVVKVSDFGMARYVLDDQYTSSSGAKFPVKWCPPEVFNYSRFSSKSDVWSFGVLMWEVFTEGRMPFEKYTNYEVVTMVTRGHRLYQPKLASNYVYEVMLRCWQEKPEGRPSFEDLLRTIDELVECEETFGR
Briefly: In vitro Tec kinase selectivity assay (Tec-POLYGT-LS). The note with it: ATP 25 μM. The procedure:
In Vitro Tec Kinase Selectivity Assay
as §1

Another test deals with T3, Lck (Homo sapiens, UniProt P06239).
T3 construct: purchased Carna Bioscience 08-170
T3 sequence (P06239 whole entry): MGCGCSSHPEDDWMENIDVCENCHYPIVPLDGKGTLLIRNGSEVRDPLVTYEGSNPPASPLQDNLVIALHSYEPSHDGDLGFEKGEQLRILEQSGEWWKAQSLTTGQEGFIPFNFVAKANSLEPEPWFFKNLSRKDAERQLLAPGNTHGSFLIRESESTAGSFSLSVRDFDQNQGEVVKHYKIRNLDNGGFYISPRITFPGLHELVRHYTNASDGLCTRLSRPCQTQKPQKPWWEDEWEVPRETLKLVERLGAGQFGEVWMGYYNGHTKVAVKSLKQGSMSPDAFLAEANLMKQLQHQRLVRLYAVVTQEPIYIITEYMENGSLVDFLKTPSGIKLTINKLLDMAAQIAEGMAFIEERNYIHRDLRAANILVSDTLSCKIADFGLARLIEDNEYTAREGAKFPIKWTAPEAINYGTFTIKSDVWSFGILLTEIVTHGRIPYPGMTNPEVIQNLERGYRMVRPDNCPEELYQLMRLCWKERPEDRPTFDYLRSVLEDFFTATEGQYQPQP
Briefly: Lck kinase selectivity assay (Example 142 procedure, Table 3 modifications). The note with it: ATP 5 μM. Here is the method: as §1, §2

The target in another test is T4, Txk (Homo sapiens, UniProt P42681).
T4 construct: purchased Carna Bioscience 08-183
T4 sequence (P42681 1-527): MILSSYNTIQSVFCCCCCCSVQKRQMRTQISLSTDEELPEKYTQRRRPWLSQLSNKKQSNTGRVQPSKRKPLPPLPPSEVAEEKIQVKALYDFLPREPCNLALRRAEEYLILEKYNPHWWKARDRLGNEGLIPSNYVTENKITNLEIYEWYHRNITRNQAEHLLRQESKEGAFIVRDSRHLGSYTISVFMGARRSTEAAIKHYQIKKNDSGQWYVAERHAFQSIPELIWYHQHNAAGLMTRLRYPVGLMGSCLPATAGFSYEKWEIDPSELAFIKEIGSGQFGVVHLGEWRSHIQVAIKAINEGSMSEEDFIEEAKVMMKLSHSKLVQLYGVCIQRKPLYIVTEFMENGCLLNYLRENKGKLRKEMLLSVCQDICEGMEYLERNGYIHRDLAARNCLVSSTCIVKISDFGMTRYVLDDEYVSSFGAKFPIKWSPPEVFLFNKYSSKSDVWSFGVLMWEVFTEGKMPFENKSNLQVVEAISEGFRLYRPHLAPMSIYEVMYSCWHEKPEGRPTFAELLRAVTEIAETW
Briefly: Txk kinase selectivity assay (Example 142 procedure, Table 3 modifications). The note with it: ATP 100 μM. The procedure:
as §1, §2

The target in another test is T5, BTK (Homo sapiens, UniProt Q06187).
T5 construct: purchased Upstate 14-552
T5 sequence (Q06187 whole entry): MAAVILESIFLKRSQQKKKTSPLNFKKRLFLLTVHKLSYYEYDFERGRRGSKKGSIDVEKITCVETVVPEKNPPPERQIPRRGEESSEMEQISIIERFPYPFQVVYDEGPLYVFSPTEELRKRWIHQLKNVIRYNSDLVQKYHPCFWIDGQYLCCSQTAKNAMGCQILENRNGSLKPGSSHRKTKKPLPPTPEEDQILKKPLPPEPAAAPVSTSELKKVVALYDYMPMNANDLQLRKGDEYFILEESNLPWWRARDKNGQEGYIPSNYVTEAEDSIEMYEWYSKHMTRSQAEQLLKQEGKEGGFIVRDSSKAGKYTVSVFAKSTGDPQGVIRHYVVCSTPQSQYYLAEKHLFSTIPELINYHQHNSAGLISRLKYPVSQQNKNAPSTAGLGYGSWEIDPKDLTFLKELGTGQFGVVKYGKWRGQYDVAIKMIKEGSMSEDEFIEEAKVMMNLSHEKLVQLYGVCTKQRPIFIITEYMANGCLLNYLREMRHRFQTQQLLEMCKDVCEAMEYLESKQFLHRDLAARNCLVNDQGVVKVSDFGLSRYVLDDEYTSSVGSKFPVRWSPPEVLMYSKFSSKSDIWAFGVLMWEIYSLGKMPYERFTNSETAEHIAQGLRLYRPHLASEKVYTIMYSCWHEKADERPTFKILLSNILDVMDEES
Briefly: In vitro BTK kinase assay (BTK-POLYGAT-LS). The settings on record: IC50 (10 uM ATP). The method, boiled down:
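Poly-GAT peptide at 100 nM with 10 μM ATP (final) in pH 7.5 Tris buffer containing MgCl2, DTT, Triton X-100 and 0.2 mg/ml casein.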

As a reminder, the IC50 is the midpoint of a concentration-inhibition curve. Higher therefore signals weaker potency. As for `CN(c1ncnc2[nH]ccc12)C1CCCCN(C(=O)CNc2cc(Cl)cc(Cl)c2)C1` (stereo not shown) [Compound 143], the IC50 against Itk, at Tec, against Lck and at Txk was greater than 10000 nM in each case.
On to `O=C(CNc1cc(Cl)cc(Cl)c1)N1CCC[C@@H](Nc2ncnc3[nH]ccc23)C1` [Compound 220], for which the 50% inhibitory concentration (IC50) was 1000 to 10000 nM against Itk, 100 to 999 nM against Tec, greater than 10000 nM on Lck and greater than 10000 nM at Txk.
As to `O=C(CNc1ccccc1S(=O)(=O)N1CCCCC1)N1CCC2CCN(c3ncnc4[nH]ccc34)C2C1` (stereo not shown) [Compound 113], the IC50 against Itk is 1000 to 10000 nM; against Tec, 1000 to 10000 nM; against Lck, greater than 10000 nM; against Txk, 1000 to 10000 nM.
`CC1C(Nc2ncnc3[nH]ncc23)CCCN1C(=O)CNc1ccccc1S(=O)(=O)N1CCCCC1` (stereo not shown) [Compound 67]: the IC50 against BTK was less than 100 nM; against Itk, 1000 to 10000 nM; on Tec, 100 to 999 nM.
For the compound `O=C(CNc1cc(Cl)cc(Cl)c1)N1CC2CC(Nc3ncnc4[nH]ccc34)C1C2` (stereo not shown) [Compound 174], the IC50 against BTK is less than 100 nM; on Itk, greater than 10000 nM; on Tec it was greater than 10000 nM; on Lck, greater than 10000 nM; against Txk it was greater than 10000 nM.
For the compound `O=C(CNc1cc(F)cc(Cl)c1)N1CCCC(Nc2ncnc3[nH]ccc23)C1C(F)(F)F` (stereo not shown) [Compound 23], the IC50 is less than 100 nM against BTK, 1000 to 10000 nM on Itk and 100 to 999 nM against Tec.
Turning to `CC[C@@H](Nc1cc(Cl)cc(Cl)c1)C(=O)N1CCC2CCN(c3ncnc4[nH]ccc34)C2C1` (stereo partly shown) [Compound 99], the IC50 on BTK is less than 100 nM; on Itk, 100 to 999 nM; on Tec, 100 to 999 nM; against Lck, 100 to 999 nM; against Txk, 1000 to 10000 nM.
Turning to `CC1C(Nc2ncnc3[nH]ccc23)CCCN1C(=O)CNc1cc(Cl)cc(Cl)c1` (stereo not shown) [Compound 105], the IC50 at Itk was 100 to 999 nM; at Tec, 100 to 999 nM; at Lck, 100 to 999 nM; on Txk, 1000 to 10000 nM.
Consider `C[C@@H]1[C@H](Nc2ncnc3[nH]ncc23)CCCN1C(=O)CNc1cc(Cl)cc(Cl)c1` [Compound 29], for which the IC50 on BTK was less than 100 nM; against Itk, 100 to 999 nM; against Tec it was less than 100 nM.
Turning to `O=C(CNc1cc(Cl)cc(Cl)c1)N1Cc2ccccc2C(Nc2ncnc3[nH]ccc23)C1` (stereo not shown) [Compound 96], the IC50 on BTK is less than 100 nM; at Itk it was 100 to 999 nM; on Tec, 100 to 999 nM; against Lck, 100 to 999 nM; against Txk, greater than 10000 nM.
Turning to `C[C@@H]1[C@H](Nc2ncnc3[nH]ncc23)CCCN1C(=O)CNc1cc(F)cc(Cl)c1` [Compound 25], the results for the IC50 against BTK, on Itk and against Tec were less than 100 nM, 100 to 999 nM and 100 to 999 nM, respectively.
As to `CN(c1ncnc2[nH]ncc12)C1CCCCN(C(=O)CNc2cc(Cl)cc(Cl)c2)C1` (stereo not shown) [Compound 167], the IC50 was 1000 to 10000 nM against Itk, 100 to 999 nM against Tec, 1000 to 10000 nM against Lck and greater than 10000 nM against Txk.
In the case of `O=C(CNc1cc(Cl)cc(Cl)c1)N1CCC2CCN(c3ncnc4[nH]ncc34)C2C1` (stereo not shown) [Compound 192], the IC50 against BTK is less than 100 nM; against Itk it was 100 to 999 nM; against Tec it was 100 to 999 nM; at Lck, 100 to 999 nM; at Txk, 1000 to 10000 nM.
Turning to `O=C(CNc1cc(Cl)cc(Cl)c1)N1CC[C@@H]2CCN(c3ncnc4[nH]ccc34)[C@@H]2C1` [Compound 124], the IC50 was 100 to 999 nM on Itk, less than 100 nM against Tec, 100 to 999 nM at Lck and 100 to 999 nM against Txk.
As to `O=C([C@H](Nc1cc(Cl)cc(Cl)c1)C1CC1)N1CCC2CCN(c3ncnc4[nH]ccc34)C2C1` (stereo partly shown) [Compound 176], the IC50 against BTK was less than 100 nM; against Itk, 1000 to 10000 nM; against Tec, 1000 to 10000 nM; against Lck, 100 to 999 nM; against Txk, 1000 to 10000 nM.
`O=C(CNc1cc(Cl)cc(Cl)c1)N1CCC2CCN(c3ncnc4[nH]ccc34)C2C1` (stereo not shown) [Compound 183]: the IC50 against Itk was less than 100 nM; on Tec, less than 100 nM; at Lck it was 100 to 999 nM; on Txk, 100 to 999 nM.
Regarding `CC(C)CN(CC(C)C)S(=O)(=O)c1ccccc1NCC(=O)N1CCC[C@@H](Nc2ncnc3[nH]ncc23)C1` [Compound 217], the IC50 at BTK was less than 100 nM; at Itk, 100 to 999 nM; against Tec, 100 to 999 nM; at Lck, 1000 to 10000 nM; against Txk it was 1000 to 10000 nM.
Take `O=C(CNc1cc(Cl)cc(Cl)c1)N1CC[C@H]2CCN(c3ncnc4[nH]ccc34)[C@H]2C1` [Compound 123]: the IC50 is less than 100 nM against Itk, less than 100 nM against Tec, 100 to 999 nM against Lck and 100 to 999 nM on Txk.
As for `CN(c1ncnc2[nH]ccc12)[C@@H]1CCCN(C(=O)CNc2cc(Cl)cc(Cl)c2)C1` [Compound 209], the IC50 against Itk lay in the range of 100 to 999 nM; on Tec, 100 to 999 nM; at Lck it was 100 to 999 nM; on Txk, 1000 to 10000 nM.
Regarding `O=C(CNc1ccccc1S(=O)(=O)c1ccccc1)N1CCC2CCN(c3ncnc4[nH]ccc34)C2C1` (stereo not shown) [Compound 114], the IC50 at Itk was 100 to 999 nM; against Tec, 100 to 999 nM; against Lck, greater than 10000 nM; against Txk, 100 to 999 nM.
Consider `NC(=O)c1cnc2[nH]ccc2c1N[C@H]1CCCN(C(=O)CNc2cc(Cl)cc(Cl)c2)[C@H]1C(F)(F)F` [Compound 226], for which the IC50 against BTK, against Itk, at Tec and at Txk was less than 100 nM each time.
On to `C[C@@H]1[C@H](Nc2ncnc3[nH]ccc23)CCCN1C(=O)CNc1cc(Cl)cc(Cl)c1` [Compound 89], for which the values for the IC50 on Itk and against Tec were 100 to 999 nM and less than 100 nM, respectively.
